Laboratory results reported in PubChem BioAssay AID652110 (The Scripps Research Institute Molecular Screening Center, 2013).
Calls of active or inactive are those of the source. How the calls were made is not given here.

Each compound was assayed against Serine/threonine-protein phosphatase PP1-alpha catalytic subunit (Homo sapiens) (UniProt P62136) (assay: PP1 inhibitors on glycogen phosphorylase dephosphorylation, late-stage follow-up, PP1 inhibitor probe project, biochemical, radiolabel, 32P-phosphorylase substrate, single concentration (AID 652110)). Settings: PP1 dephosphorylation of 32P-glycogen phosphorylase, at 50 µM, stronger effect = higher value.
Serine/threonine-protein phosphatase PP1-alpha catalytic subunit (Homo sapiens), sequence (P62136 whole entry, looked up): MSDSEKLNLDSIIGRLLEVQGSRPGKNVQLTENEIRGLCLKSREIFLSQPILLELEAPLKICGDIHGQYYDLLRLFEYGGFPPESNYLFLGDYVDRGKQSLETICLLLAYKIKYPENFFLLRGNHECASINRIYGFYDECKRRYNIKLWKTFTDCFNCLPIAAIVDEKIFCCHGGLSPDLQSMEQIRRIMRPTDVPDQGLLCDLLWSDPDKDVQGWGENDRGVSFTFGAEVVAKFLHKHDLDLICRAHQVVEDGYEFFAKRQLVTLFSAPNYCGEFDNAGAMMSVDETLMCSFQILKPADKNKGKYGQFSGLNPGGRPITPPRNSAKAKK

| Structure (SMILES) | inhibition |
| --- | --- |
| Cc1ccc(C(=O)NNc2cc(N3CCCC3)nc(N3CCCC3)n2)cc1 | 14.4% (inactive) |
| Oc1cccc(/C=N/Nc2cc(N3CCCC3)nc(N3CCCC3)n2)c1 | 20.3% (inactive) |
| Nc1cc2nsnc2cc1Br | 27.9% (inactive) |
| c1ccc(Nc2nc(-c3ccccn3)cs2)cc1 | 13.2% (inactive) |
| COc1cnc(-c2ccccn2)nc1Oc1cccc(Cl)c1 | 3.5% (inactive) |
| CCOC(=O)c1cnc(-n2nc(C)cc2C)nc1NC1CCCCC1 | 16.3% (inactive) |
| COc1cnc(-c2ccccn2)nc1Sc1cccc(Cl)c1 | 23% (inactive) |
| O=C(O)c1n[nH]nc1-c1ccccc1 | 22.4% (inactive) |
| Cc1ccc(-n2nc(C(=O)O)cc2-c2ccc(Cl)cc2)cc1 | 5.4% (inactive) |
| O=C(O)c1cc(-c2ccc(Cl)c(Cl)c2)n(-c2ccccc2)n1 | 12.2% (inactive) |
| COc1ccc(OCCCC(=O)Nc2nc(-c3ccccn3)cs2)cc1 | 19.4% (inactive) |
| O=C(NC1(O)C(=O)c2ccccc2C1=O)c1c(Cl)cccc1Cl | 33.1% (inactive) |
| CCn1c2ccccc2c2cc(NC(=O)COC(=O)c3ccc(NC(=O)CC#N)cc3)ccc21 | 74.6% |
| CCCCn1c(NC(=O)c2ccco2)c(C(=O)OCC)c2nc3ccccc3nc21 | 29.8% (inactive) |
| Cc1[nH]n(-c2ccccc2)c(=O)c1C(c1ccc([N+](=O)[O-])cc1)c1c(C)[nH]n(-c2ccccc2)c1=O | 48.3% (inactive) |
| O=c1[nH]c(Nc2ccccc2)cc2ccccc12 | 19% (inactive) |
| CCOC(=O)c1cnc(-n2cc(C)cn2)nc1NCc1ccc2c(c1)OCO2 | 21.6% (inactive) |
| CCOC(=O)c1sc2nc3c(SCC(=O)O)cc(C(=O)c4cc(F)ccc4O)cn3c(=O)c2c1C | 92.2% |
| COc1cnc(-c2ccccn2)nc1Sc1ccccc1 | 0.752% (inactive) |
| Cc1ccc(C(=O)NC2(O)C(=O)c3ccccc3C2=O)cc1C | 29.6% (inactive) |
| COc1ccccc1Sc1nc(-c2ccccn2)ncc1OC | -0.402% (inactive) |
| COc1ccc(NC(=S)Nc2ccc3nsnc3c2)cc1 | 13.3% (inactive) |

| Structure (SMILES) | inhibition |
| --- | --- |
| CCOC(=O)c1cnc(-n2nc(C)cc2C)nc1NC(C)c1ccccc1 (stereo not given) | 15.8% (inactive) |
| O=S(=O)(Cc1cc(NCc2ccccc2)nc(-c2ccccn2)n1)c1ccccc1 | 11.7% (inactive) |
| Clc1ccc(-n2nnnc2-c2cnc(-c3ccccn3)nc2-c2cccs2)cc1 | 0.651% (inactive) |
| O=C(O)c1cc(-c2ccc(Cl)cc2)n(-c2cccc(Cl)c2)n1 | 12% (inactive) |
| CCCCN(CC)c1nc(N)c2c(N)nc(OCC)cc2c1C#N | 17.2% (inactive) |
| COc1cc(Br)c(C(=O)c2nccc3cc(OC)c(OC)cc23)cc1OC | 9.5% (inactive) |
| O=C(O)C1C2CCC(O2)C1C(=O)NC1CCCCC1 (stereo not given) | 66.1% (inactive) |
| Cc1cc(C)c(S(=O)(=O)/N=C2\C=C(Sc3ncn[nH]3)C(=O)c3ccccc32)cc1C | 30.5% (inactive) |
| O=C(NC1(O)C(=O)c2ccccc2C1=O)c1ccccc1 | 30.4% (inactive) |
| Oc1ccccc1/C=N/Nc1cc(N2CCCC2)nc(N2CCCC2)n1 | 17.2% (inactive) |
| CCOC(=O)c1sc(N2C(=O)C(O)=C(C(=O)c3ccco3)C2c2cccc([N+](=O)[O-])c2)nc1C (stereo not given) | 51.3% (inactive) |
| Nc1nc(-c2ccccn2)nc(N)c1Cc1ccc(Cl)cc1Cl | 22.1% (inactive) |
| CC(C)(CS(=O)(=O)[O-])NC(=O)CC[N+](C)(C)CCO | 3.71% (inactive) |
| O=C(O)c1cc(-c2ccc(Cl)c(Cl)c2)n(-c2ccc(F)cc2)n1 | 8.75% (inactive) |
| N#Cc1c(N2CCCC(O)C2)nc(N)c2c(N)nc3c(c12)CC(=O)N3C12CC3CC(CC(C3)C1)C2 (stereo not given) | 24.2% (inactive) |
| O=C1CCCC2=C1C1(O)C(=O)c3ccccc3C1(O)O2 (stereo not given) | 19.8% (inactive) |
| COc1ccc2c(Cl)c(C(=O)N/N=C/c3ccc4c(c3)OCO4)sc2c1 | 33.4% (inactive) |
| CCCN(CC1CC1)c1nc(N)c2c(N)nc(OC)cc2c1C#N | 8.48% (inactive) |
| c1ccc(-c2nccc(-c3ccc(-n4cnc5ccccc54)cc3)n2)nc1 | 43% (inactive) |
| CCOc1ccc(NC(=S)Nc2ccc3nsnc3c2)cc1 | 9.35% (inactive) |
| CCOC(=O)c1cnc(-n2nc(C)cc2C)nc1NCc1ccccc1 | 7.11% (inactive) |
| CN1CCN(C(c2ccccn2)c2cc(Cl)c3cccnc3c2O)CC1 (stereo not given) | 97% |

| Structure (SMILES) | inhibition |
| --- | --- |
| CCOC(=O)c1cnc(-n2nc(C)cc2C)nc1NCCc1ccccc1 | 16.9% (inactive) |
| COc1cnc(-c2ccccn2)nc1Oc1cccc(C(F)(F)F)c1 | 0.507% (inactive) |
| COc1ccc(Cn2c(N)c(C(=O)NCc3ccco3)c3nc4ccccc4nc32)cc1OC | 8.99% (inactive) |
| CCOC(=O)C1=C(C)OC2(O)c3ccccc3C(=O)C12O (stereo not given) | 17.4% (inactive) |
| O=C(NC1(O)C(=O)c2ccccc2C1=O)c1ccc(C(F)(F)F)cc1 | 39.2% (inactive) |
| Cc1nnc(NC(=O)C2C3C=CC(O3)C2C(=O)O)s1 (stereo not given) | 56.1% (inactive) |
| COc1ccc(CN2C(=O)Cc3c2nc(N)c2c(N)nc(N4CCCCC4)c(C#N)c32)cc1 | 45.7% (inactive) |
| COc1cnc(-c2ccccn2)nc1Sc1ccccc1Cl | 9.17% (inactive) |
| CC(=O)C(C(C)=O)C1(O)C(=O)c2ccccc2C1=O | 24.6% (inactive) |
| COc1ccc(Sc2nc(-c3ccccn3)ncc2OC)cc1 | -0.0224% (inactive) |
| N#Cc1c(-c2ccc(Cl)cc2)cc(-c2cccs2)nc1SCC(=O)O | 81.6% |
| COc1cnc(-c2ccccn2)nc1Sc1ccc(F)cc1 | 3.69% (inactive) |
| Oc1ccc(/C=N/Nc2cc(N3CCOCC3)nc(N3CCOCC3)n2)c(O)c1 | 20.3% (inactive) |
| COc1cnc(-c2ccccn2)nc1Sc1ccc(Cl)cc1 | 12.2% (inactive) |
| O=C(Nc1nc(-c2ccccn2)cs1)C1CC(=O)N(c2ccc3c(c2)OCCO3)C1 (stereo not given) | 19.7% (inactive) |
| COc1ccc(C(=O)c2nccc3cc(OC)c(OC)cc23)cc1OC | 9.58% (inactive) |
| COc1ccc(Cl)cc1C(=O)Nc1cccc(-c2ccc3nncn3n2)c1 | 61.7% (inactive) |
| COc1cnc(-c2ccccn2)nc1Sc1ccc(C)cc1 | 9.79% (inactive) |
| COc1ccc(NC(=O)C2C3CCC(O3)C2C(=O)O)c(OC)c1 (stereo not given) | 73.9% |
| CCOC(=O)c1nn(-c2ccc(C)cc2)c(=O)c2c(N)scc12 | 12.3% (inactive) |
| O=C1Nc2ccccc2N2CCCC12 (stereo not given) | 9.82% (inactive) |
